Experimental data published in PubChem BioAssay (NCI).
Values joined by “and” are separate entries in the source; they are usually repeats but may differ in a detail not shown here. Identical values can stand only once.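 The compound was tested at five concentrations on cells cultured in 96-well plates, with a 48-hour exposure period. GI50 marks 50% less growth. The concentration for full growth arrest is given as TGI.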

What was measured:
Assay in all cases: NCI tumour cell line growth inhibition, 48 h
786-0 renal = test system: 786-0 renal
EKVX NSCLC = test system: EKVX NSCLC
KM12 colon = test system: KM12 colon
OVCAR-4 ovarian = test system: OVCAR-4 ovarian
OVCAR-5 ovarian = test system: OVCAR-5 ovarian
OVCAR-8 ovarian = test system: OVCAR-8 ovarian
RPMI-8226 leukemia = test system: RPMI-8226 leukemia
RXF 393 renal = test system: RXF 393 renal
SF-295 CNS = test system: SF-295 CNS
UACC-62 melanoma = test system: UACC-62 melanoma

Structure (SMILES)	TGI (786-0 renal)	TGI (EKVX NSCLC)	TGI (KM12 colon)	TGI (OVCAR-4 ovarian)	TGI (OVCAR-5 ovarian)	TGI (OVCAR-8 ovarian)	TGI (RPMI-8226 leukemia)	TGI (RXF 393 renal)	TGI (SF-295 CNS)	TGI (UACC-62 melanoma)	GI50 (786-0 renal)	GI50 (EKVX NSCLC)	GI50 (KM12 colon)	GI50 (OVCAR-4 ovarian)	GI50 (OVCAR-5 ovarian)	GI50 (OVCAR-8 ovarian)	GI50 (RPMI-8226 leukemia)	GI50 (RXF 393 renal)	GI50 (SF-295 CNS)	GI50 (UACC-62 melanoma)
COC(=O)C1(C)C=C(Nc2ccccc2)C(=O)N1c1ccccc1 (stereo not drawn)	> 100 µM	> 100 µM	> 100 µM	> 100 µM	> 100 µM	> 100 µM	> 100 µM	> 100 µM	> 100 µM	> 100 µM										
COc1ccc(-c2ccc(C3CC(c4ccc(O)cc4)=NN3)o2)c([N+](=O)[O-])c1 (stereo not drawn)	> 100 µM	> 100 µM	95.9 µM	96.6 µM	> 100 µM	> 100 µM	71.9 µM	> 100 µM	> 100 µM	> 100 µM	45.1 µM	43 µM	24.5 µM	50.2 µM	> 100 µM	42.8 µM	11600 nM	23.7 µM	29.9 µM	33.1 µM
N#CC1=C(N)Oc2cc3c(cc2C1c1cccs1)OCO3 (stereo not drawn)	> 68.3 µM	> 100 µM	> 59.7 µM	> 100 µM	> 85.4 µM	> 52.7 µM	40.7 µM	2.7 µM	> 100 µM	> 100 µM	0.686 µM	1.21 µM	0.325 µM	4.5 µM	2.82 µM	0.587 µM	451 nM	0.311 µM	0.393 µM	0.485 µM
COc1ccc(C(=O)/C=C/c2ccc(O)c(O)c2F)c(OC)c1	31.3 µM and 17.1 µM	30.3 µM and 28.9 µM	27.8 µM and 23.9 µM	75 µM and > 100 µM	23.3 µM and 34.8 µM	65.5 µM and > 100 µM	31 µM and 8.25 µM	26.4 µM and 32.1 µM	26.3 µM and 34.4 µM	16.8 µM and 21.9 µM	1.88 µM	10.9 µM		9.3 µM	15.3 µM	8.81 µM	923 nM	11.6 µM	10.9 µM	
COc1cccc(-c2nn(-c3ccccc3)cc2-c2ccnc(NCCNS(=O)(=O)c3ccc(Cl)cc3)c2)c1	> 100 µM	> 100 µM	> 100 µM	> 100 µM	> 100 µM	> 100 µM	13.3 µM	> 100 µM	57.5 µM	> 100 µM	6.61 µM	3.84 µM	3.72 µM	4.15 µM	> 100 µM	7.54 µM	2740 nM	5.03 µM	3.89 µM	5.51 µM
CCN(CC)CCCN(c1cc(OC)cc2nccnc12)S(=O)(=O)c1ccc(C)cc1	> 100 µM	> 100 µM	> 100 µM	> 100 µM	> 100 µM	> 100 µM	> 100 µM	> 100 µM	> 100 µM	> 100 µM										
O=C1/C(=C/c2cccc([N+](=O)[O-])c2)COc2ccc(O)c(O)c21	2.85 µM	4.1 µM	3.4 µM	2.8 µM	3.44 µM	13.3 µM	0.93 µM	2.69 µM	11.2 µM	2.98 µM	1.35 µM	1.9 µM	1.68 µM	1.46 µM	1.8 µM	2.35 µM	301 nM	1.28 µM	3.27 µM	1.57 µM
COc1cc(/C=C(/C)[N+](=O)[O-])ccc1O	3.26 µM and 3.51 µM	18.7 µM and 14.6 µM	7.52 µM and 3.75 µM	7.6 µM and 3.18 µM	10.1 µM and 7.96 µM	9.5 µM and 7.93 µM	2.53 µM and 4.25 µM	3.24 µM and 3.31 µM	22.4 µM and 8.89 µM	3.7 µM and 3.71 µM	1.79 µM and 1.94 µM	6.55 µM and 2.84 µM	2.97 µM and 1.93 µM	2.62 µM and 1.69 µM	3.47 µM and 2.66 µM	2.86 µM and 2.73 µM	737 nM and 1730 nM	1.72 µM and 1.8 µM	9.45 µM and 2.77 µM	1.77 µM and 1.8 µM
CC(C)(C)NNC(=O)/C(=C/c1ccc(Oc2ccc(Cl)c(Cl)c2)cc1)NC(=O)c1ccccc1	> 100 µM	> 100 µM	> 100 µM	> 100 µM	> 100 µM	> 100 µM	45.1 µM	> 100 µM	> 100 µM	> 100 µM										
Cc1cc2c(c3c1c1ccccc1n3C)C(=O)C=CC2=O	17.3 µM	> 100 µM	57.9 µM	30.6 µM	> 100 µM	56.4 µM	26.5 µM	30.5 µM	> 88.4 µM	51.1 µM										
CCN(CC)CCn1c(C(C)(C)C)nc2ccccc21	> 100 µM	> 100 µM	> 100 µM	> 100 µM	> 100 µM	> 100 µM	> 100 µM	> 100 µM	> 100 µM	> 100 µM										
Oc1ccc(C(c2ccccc2)(c2ccccc2)c2ccccc2)cc1	29.7 µM	29.3 µM	48.7 µM	25.2 µM	28.1 µM	35.9 µM	45.5 µM	25 µM	> 100 µM	30.6 µM	14.4 µM	15.4 µM	19.3 µM	12.3 µM	14.4 µM	18.2 µM	22000 nM	10.4 µM	27.2 µM	16 µM
COc1ccc(C(=O)Cn2c(C(=O)c3ccc(Cl)cc3)nc3ccccc32)cc1	> 27.3 µM	> 100 µM	> 100 µM	> 100 µM	> 100 µM	> 100 µM	> 77.8 µM	20.5 µM	> 100 µM	> 100 µM	13.2 µM	> 42.9 µM	4.18 µM	> 84.1 µM	> 66.3 µM	> 100 µM	1750 nM	3.62 µM	22.8 µM	> 28.4 µM
Oc1ccc2ccccc2c1C=NCCCN=Cc1c(O)ccc2ccccc12	40.7 µM	> 100 µM	36.2 µM	> 100 µM	81.4 µM	> 100 µM	31.1 µM	86.2 µM	42.1 µM	16.8 µM	17.4 µM	17.3 µM	15.1 µM	35.9 µM	28.4 µM	32.4 µM	4110 nM	21.8 µM	9.96 µM	4.27 µM
